Experimental data as given in patent publication US20230250098A1 (priority 2021, published 2023).
Entries after “also recorded” stand apart in the source; their conditions may differ. Read-outs that look alike come from different tables or passages of the source.

Assays:
HA-mouse μOP = biological target: T1, HA-mouse μOP (Mus musculus, UniProt P42866); test: GloSensor cAMP inhibition assay in transfected HEK cells; assay type: cell-based; conditions: for cAMP α: efficacy normalized to positive control DAMGO; for IC50 / cAMP pIC50: inhibition of forskolin-induced cAMP
T1 construct: HA (N); expressed in transfected cells; host or cells: HEK cells, transient transfection together with pGloSensor22F
T1 sequence (P42866 whole entry): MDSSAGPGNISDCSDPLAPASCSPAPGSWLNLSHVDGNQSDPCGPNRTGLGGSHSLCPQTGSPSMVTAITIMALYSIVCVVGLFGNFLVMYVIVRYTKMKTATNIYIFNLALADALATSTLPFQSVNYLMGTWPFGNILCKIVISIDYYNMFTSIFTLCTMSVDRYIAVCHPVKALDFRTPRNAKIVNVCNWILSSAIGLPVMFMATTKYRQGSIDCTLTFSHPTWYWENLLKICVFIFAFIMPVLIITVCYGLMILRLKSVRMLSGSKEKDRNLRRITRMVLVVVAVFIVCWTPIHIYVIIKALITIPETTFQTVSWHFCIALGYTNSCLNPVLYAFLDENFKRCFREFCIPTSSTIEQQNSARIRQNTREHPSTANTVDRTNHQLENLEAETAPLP

FLAG-mouse δOP = biological target: T2, FLAG-mouse δOP (Mus musculus, UniProt P32300); test: as above; assay type: cell-based; conditions: for cAMP α: efficacy normalized to positive control Leu-Enk; for IC50 / cAMP pIC50: inhibition of forskolin-induced cAMP
T2 construct: FLAG (N); expressed in transfected cells; host or cells: HEK cells (HEK-293), transient transfection together with pGloSensor22F
T2 sequence (P32300 whole entry): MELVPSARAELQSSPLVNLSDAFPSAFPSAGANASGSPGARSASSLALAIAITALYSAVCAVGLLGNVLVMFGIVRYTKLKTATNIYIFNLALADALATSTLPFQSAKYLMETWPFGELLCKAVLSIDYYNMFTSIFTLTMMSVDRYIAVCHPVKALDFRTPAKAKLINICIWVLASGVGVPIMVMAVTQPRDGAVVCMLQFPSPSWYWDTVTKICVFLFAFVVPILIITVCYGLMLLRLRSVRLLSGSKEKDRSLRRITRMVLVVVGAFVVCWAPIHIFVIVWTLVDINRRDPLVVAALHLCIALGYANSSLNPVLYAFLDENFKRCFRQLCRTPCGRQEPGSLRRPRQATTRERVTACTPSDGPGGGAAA

FLAG-mouse κOP = biological target: T3, FLAG-mouse κOP (Mus musculus, UniProt P33534); assay type: cell-based; conditions: for IC50: read-out: cAMP IC50
T3 construct: FLAG (N); expressed in transfected cells; host or cells: HEK cells, transient transfection together with pGloSensor22F
T3 sequence (P33534 whole entry): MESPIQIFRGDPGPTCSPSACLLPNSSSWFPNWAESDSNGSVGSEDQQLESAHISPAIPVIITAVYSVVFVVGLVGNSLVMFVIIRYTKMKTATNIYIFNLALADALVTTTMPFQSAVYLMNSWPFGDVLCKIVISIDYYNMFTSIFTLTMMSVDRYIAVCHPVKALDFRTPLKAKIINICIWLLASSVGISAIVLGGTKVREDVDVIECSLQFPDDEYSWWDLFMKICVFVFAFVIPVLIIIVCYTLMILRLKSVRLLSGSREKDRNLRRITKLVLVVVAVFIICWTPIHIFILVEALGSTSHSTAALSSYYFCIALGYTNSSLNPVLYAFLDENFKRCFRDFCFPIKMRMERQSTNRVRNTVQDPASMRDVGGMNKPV

δOP [1] = biological target: T4, δOP (Homo sapiens, UniProt P41143); assay type: cell-based
T4 sequence (P41143 whole entry): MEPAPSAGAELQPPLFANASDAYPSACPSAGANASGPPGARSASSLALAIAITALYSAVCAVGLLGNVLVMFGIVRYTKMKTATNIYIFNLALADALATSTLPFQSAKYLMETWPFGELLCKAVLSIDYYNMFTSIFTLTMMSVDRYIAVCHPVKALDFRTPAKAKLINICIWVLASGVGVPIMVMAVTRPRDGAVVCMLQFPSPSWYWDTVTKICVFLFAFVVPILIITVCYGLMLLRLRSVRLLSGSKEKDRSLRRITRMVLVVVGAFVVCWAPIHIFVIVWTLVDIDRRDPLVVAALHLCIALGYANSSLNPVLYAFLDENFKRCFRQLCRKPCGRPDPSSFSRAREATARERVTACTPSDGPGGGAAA

C57Bl/6 wild-type mice [2] = test: Two-bottle choice alcohol paradigm (drinking in the dark, 10% ethanol vs water); assay type: in vivo, mouse; conditions: systemic (i.p.) injection; modified 2-bottle choice; male C57BL/6 mice; FIG. 1
C57Bl/6 wild-type mice [3] = conditions: cited from earlier work; for alcohol consumption, in words (previous reports): dose not stated; for alcohol intake, in words (previous reports): 10 mg·kg^−1
male, WT mice [4] = conditions: dose not stated; cited from earlier work
WT mice [5] = conditions: 7-hydroxymitragynine dose not stated; paynantheine 10 mg·kg^−1; cited from earlier work
δOP [6] = biological target: T4, δOP; assay type: binding; set-up: membranes isolated; conditions: [3H]DPDPE, CHO membranes; for Ki: read-out: Binding Ki
κOP = κOP (Homo sapiens, UniProt P41145); assay type: binding; set-up: membranes isolated; conditions: for Ki: read-out: Binding Ki
κOP, sequence (P41145 whole entry): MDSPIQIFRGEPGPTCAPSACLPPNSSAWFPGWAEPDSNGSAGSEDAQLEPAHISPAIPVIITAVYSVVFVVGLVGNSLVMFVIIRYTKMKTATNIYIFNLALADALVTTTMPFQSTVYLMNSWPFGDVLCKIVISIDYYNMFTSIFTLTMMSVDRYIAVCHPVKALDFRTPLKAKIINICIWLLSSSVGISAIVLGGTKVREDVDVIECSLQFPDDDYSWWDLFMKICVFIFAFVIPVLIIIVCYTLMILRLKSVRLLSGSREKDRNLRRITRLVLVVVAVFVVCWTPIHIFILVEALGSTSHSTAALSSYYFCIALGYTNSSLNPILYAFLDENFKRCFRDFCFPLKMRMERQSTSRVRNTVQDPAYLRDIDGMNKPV

μOP [7] = biological target: T5, μOP (Homo sapiens, UniProt P35372); assay type: cell-based; conditions: normalized to positive control DAMGO
T5 sequence (P35372 whole entry): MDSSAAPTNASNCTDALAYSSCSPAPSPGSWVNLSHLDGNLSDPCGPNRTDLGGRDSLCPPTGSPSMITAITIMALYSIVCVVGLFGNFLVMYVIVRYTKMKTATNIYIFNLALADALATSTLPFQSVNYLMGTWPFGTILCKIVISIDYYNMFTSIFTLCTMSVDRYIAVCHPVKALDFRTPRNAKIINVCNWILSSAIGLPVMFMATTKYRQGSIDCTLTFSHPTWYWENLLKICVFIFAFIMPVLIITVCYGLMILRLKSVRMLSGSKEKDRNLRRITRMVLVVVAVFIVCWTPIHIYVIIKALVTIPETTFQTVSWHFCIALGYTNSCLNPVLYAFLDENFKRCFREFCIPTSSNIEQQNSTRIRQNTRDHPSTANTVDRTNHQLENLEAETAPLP

δOP KO mice [8] = test: Two-bottle choice alcohol paradigm in δOP KO mice; assay type: in vivo, mouse; conditions: 10 mg·kg^−1; male δOP KO mice
male mice = test: Tail flick thermal nociception assay; assay type: in vivo, mouse
μOP [9] = biological target: T5, μOP; assay type: binding; set-up: membranes isolated; conditions: [3H]DAMGO, CHO membranes
WT mice [10] = test: Locomotor evaluation; conditions: 10 mg·kg^−1
δOP KO mice [11] = test: Seizure assay in δOP KO mice; conditions: 30 mg·kg^−1 i.p.
wildtype mice = test: Seizure assay (modified racine scale)
male, WT mice [12] = test: Conditioned place preference (brief and extended); conditions: 10 mg·kg^−1

SMILES | cAMP α (HA-mouse μOP) | IC50 (HA-mouse μOP) | cAMP pIC50 (HA-mouse μOP) | cAMP α (FLAG-mouse δOP) | IC50 (FLAG-mouse δOP) | cAMP pIC50 (FLAG-mouse δOP) | cAMP pIC50 (FLAG-mouse κOP) | cAMP α (FLAG-mouse κOP) | IC50 (FLAG-mouse κOP) | alcohol intake, in words (C57Bl/6 wild-type mice [2]) | alcohol consumption, in words (previous reports) (C57Bl/6 wild-type mice [3]) | hyperlocomotion (previous reports) (WT mice [5]) | Binding pKi (δOP [6]) | Ki (δOP [6]) | Binding pKi (κOP) | Ki (κOP) | further results
CC[C@@H]1CN2CC[C@@]3(O)C(=Nc4cccc(OC)c43)[C@@H]2C[C@@H]1/C(=C\OC)C(=O)OC [7-OH MITRA, 7-hydroxymitragynine, reference compound] | 84 ± 3 | 0.016 µM | 7.8±0.1 | 80 ± 8 | 0.96 µM | *5.7 ± 0.2 (8) | *6.2 ± 0.3 (9) | 77 ± 5 | 1.04 µM | reduce alcohol intake | decrease alcohol consumption | caused both CPP and hyperlocomotion | 6.7 ± 0.1 (4) | 0.019 µM | 6.9 ± 0.1 (4) | 0.014 µM | β-arrestin 2 pEC50 (δOP [1]): 6.4 ± 0.3 (6); β-arrestin 2 α (δOP [1]; normalized to positive control Leu-Enk): 14 ± 1; conditioned place preference (previous report) (male, WT mice [4]): caused both CPP and hyperlocomotion
C[C@@H](NC(=O)[C@@H](N)Cc1ccc(O)cc1)C(=O)NCC(=O)N(C)[C@@H](Cc1ccccc1)C(=O)NCCO [DAMGO, (2S)-2-[[2-[[(2R)-2-[[(2S)-2-Amino-3-(4-hydroxyphenyl)propanoyl]amino]propanoyl]amino]acetyl]-methylamino]-N-(2-hydroxyethyl)-3-phenylpropanamide, reference compound] | 100 | – | – | – | – | – | – | – | – | – | – | – | – | – | – | – | β-arrestin 2 α (μOP [7]): 100
C=C[C@H]1CN2CCc3c([nH]c4cccc(OC)c34)[C@@H]2C[C@@H]1/C(=C\OC)C(=O)OC [PAYN, paynantheine, reference compound] | 100 ± 0 | 4.08 µM | *5.4 ± 0.1 (5) | 64 ± 13 | 3.55 µM | *5.6 ± 0.2 (4) | *5.3 ± 0.2 (4) | 95 ± 5 | 7.43 µM | reduce alcohol intake | decrease alcohol consumption | without causing hyperlocomotion | 5.3 ± 0.1 (5) | 7.82 µM | 5.5 ± 0.1 (5) | 4 µM | ethanol consumption in δOP KO mice, in words (δOP KO mice [8]): did not significantly decrease ethanol consumption; also recorded: alcohol consumption was not significantly altered; block of morphine analgesia (antagonist mode) (male mice; 10 mg·kg^−1, then morphine 6 mg·kg^−1 s.c. 10 minutes later): did not produce antinociception (paired, two-tailed t-test, t=0.6193, df=9, p=0.5511) or block morphine analgesia; antinociception (agonist mode) (male mice; 10 mg·kg^−1, 30 minutes after drug): did not produce antinociception; alcohol intake, in words (previous reports) (C57Bl/6 wild-type mice [3]; listed as Paynantheine): decrease alcohol intake; alcohol intake, in words (previous reports) (C57Bl/6 wild-type mice [3]; listed as paynantheine): significant reduction; Binding pKi (μOP [9]): 6.3 ± 0.1 (4); Ki (μOP [9]; read-out: Binding Ki): 0.052 µM; ambulation / locomotor activity (WT mice [10]): a trend towards decreased locomotor activity; seizure activity in δOP KO mice (δOP KO mice [11]): still present in δOP KO mice; seizure activity (wildtype mice; 10 mg·kg^−1): not showing overt signs of seizure activity; seizure activity (wildtype mice; 30 mg·kg^−1): induced seizures; conditioned place preference, brief paradigm (male, WT mice [12]): induces conditioned place aversion (CPA); conditioned place preference, extended protocol (male, WT mice [12]; four conditioning sessions each for drug and vehicle): does not produce place preference
